{
  "source": "patent US11583529B2",
  "about": "“Treatment of inflammatory disorders” (Aldeyra Therapeutics, Inc., priority 2017, dated 2023)",
  "test_system": "rat model of endotoxin induced uveitis",
  "assay": "Rat model of endotoxin-induced uveitis (EIU), topical or intravitreal treatment",
  "format": "in vivo, female Lewis rats",
  "details": "for overall ophthalmic examination score: vs control (BSS) topical",
  "method": "An in vivo study was conducted to assess the efficacy of intravitreal administration of compound I-22 in a rat model of endotoxin induced uveitis, one of the most appropriate models for the study of NIU (Smith et al., 1998) (Toxikon Study 16-04078-N1). Ocular inflammation was induced in female Lewis rats (n=10/group) by a single foot pad injection of LPS (100 μL) (Herbort et al., 1988, Graefe's Arch Clin Exp Ophthalmol. 226:553-558). Compound I-22 (5 mg/mL) was administered intravitreally into each eye (25 μg/eye), or topically to both eyes at 1, 3, 7, 10, and 17 hours post-LPS injection, within one hour of LPS administration. Balanced salt solution (BSS) served as a vehicle control. Retinal exams were performed prior to study start and six and 24 hours following LPS administration and scored using a Combined Draize and McDonald Shadduck scoring system, based on assessments of: retinal vasculopathy and retinal hemorrhage, exudate, and detachment.\nEndotoxin-induced uveitis was created by a single injection of lipopolysaccharide (LPS; 100 μL) into one hind footpad. Ten (10) female Lewis rats per group received control (balanced salt solution, BSS) or test article (compound I-22) topically to both eyes at 1, 3, 7, 10, and 17 hours post-LPS injection. At each dosing time point, two drops (5 μL each, separated by approximately two minutes, for a total of 10 μL/eye/dose) were instilled into each eye of the animals. Ten female Lewis rats per group received control (BSS) or compound I-22 by a single intravitreal injection (IVT) in each eye at one hour post-LPS injection. Each eye received 5 μL of vehicle or test article.\nAnimals were anesthetized with isoflurane 1-3.5% for ophthalmic examinations. Both eyes of each animal were evaluated pre-dose using slit-lamp biomicroscopy, and an indirect ophthalmoscope or a surgical microscope, according to the Combined Draize and McDonald-Shadduck Scoring System, and the Ocular Posterior Segment Scoring Scale. All pupils were dilated with 1% tropicamide ophthalmic solution before ocular examination. Only rats showing no signs of eye irritation, ocular defects or preexisting corneal injury were used in the study.\nOphthalmic examinations were performed on both eyes of each animal approximately six and 24 hours following LPS administration, using slit-lamp biomicroscopy and a surgical microscope or via indirect ophthalmoscopy. Pupils were dilated with 1% Tropicamide Ophthalmic Solution before ophthalmic examinations.\nQuantitative, continuous data from this study were analyzed using one-way ANOVA. Alternative or additional statistical methods were used as necessary.\nIn the same study, the efficacy of compound 1-5 was compared to that of compound 1-22. Compound 1-5 was topically administered topically to the eye at hours 1, 3, 7, 10, and 17, after LPS induction, or by a single intravitreal (IVT) injection one hour after LPS induction (n=10 per group), as was compound I-22. Ocular exams were performed 6 and 24 hours after LPS injection. Anterior segments were scored using a combined Draize and McDonald-Shadduck scoring system, and posterior segments were scored using 0 to 1 (vitreous, optic disc, retinal vasculature) and 0 to 4 (retinal and choroidal hemorrhage, exudation, and detachment) scales. Statistical significance from vehicle control was determined by ANOVA, followed by Tukey's post hoc test.",
  "key": {"[1]": {"details": "intravitreal administration, vs vehicles"}},
  "note": "Entries after “also recorded” stand apart in the source; their conditions may differ.",
  "data": [
    {"smiles": "CC(C)(O)c1cc2oc(-c3ccccc3)nc2cc1N", "note": "[Compound I-22]", "values": [
      {"measurement": "ocular exam scores", "setting": "IVT, vs vehicle", "value": "significantly improved"},
      {"measurement": "sums of the mean retinal examination scores", "setting": "IVT, vs vehicle controls (FIG. 2)", "value": "significantly reduced"},
      {"measurement": "Total ocular inflammation", "setting": "[1]", "value": "lower"},
      {"measurement": "anterior chamber inflammation", "setting": "[1]", "value": "lower"},
      {"measurement": "retina-choroid inflammation", "setting": "[1]", "value": "lower"},
      {"measurement": "signs of inflammation in the rat EIU model", "setting": "overall", "value": "reduced"},
      {"measurement": "response in the EIU model", "setting": "overall, I-22 compared with I-5", "value": "slightly more positive response"},
      {"measurement": "ophthalmic examination scores", "setting": "single IVT injection (25 μg/eye), approximately six and 24 hours post LPS, vs control IVT", "value": "significantly lower"},
      {"measurement": "ocular exam scores", "setting": "topical (TO), 6 hours and 24 hours, vs vehicle", "value": "significantly improved"},
      {"measurement": "Total ocular inflammation score", "setting": "topical (TO), vs vehicle", "value": "lower"},
      {"measurement": "anterior chamber inflammation score", "setting": "topical (TO), vs vehicle", "value": "lower"},
      {"measurement": "retina-choroid inflammation score", "setting": "topical (TO), vs vehicle", "value": "lower"},
      {"measurement": "overall ophthalmic examination score", "setting": "topical at 1, 3, 7, 10, 17 h post-LPS, approximately six hours post LPS", "value": "significantly lower; also recorded: statistically lower"},
      {"measurement": "overall ophthalmic examination score", "setting": "topical, approximately 24 hours post LPS", "value": "significantly lower"}
    ]}
  ]
}
